In ChEMBL document CHEMBL1201862, “PubChem BioAssay data set” (2004):
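Five compound concentrations were applied to cells in 96-well plates for 48 hours; endpoints were derived by simple linear interpolation of the resulting dose-response curve. The concentration for 50% growth inhibition is given as GI50.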 Active and inactive are the calls of the source. Rule as the data show it: active = GI50 up to about 1.1 µM and inactive = higher.

Assays:
Assay in all cases: growth of human tumour cells (NCI), 48 h
SNB-78 = tested on: SNB-78
CCRF-CEM = tested on: CCRF-CEM
SNB-19 = tested on: SNB-19
SK-MEL-2 = tested on: SK-MEL-2
RXF 393 = tested on: RXF 393
M14 = tested on: M14
DLD-1 = tested on: DLD-1
OVCAR-3 = tested on: OVCAR-3
OVCAR-5 = tested on: OVCAR-5
HCC 2998 = tested on: HCC 2998
Malme-3M = tested on: Malme-3M
COLO 205 = tested on: COLO 205
NCI-H522 = tested on: NCI-H522
SF-268 = tested on: SF-268
DMS-273 = tested on: DMS-273
SW-620 = tested on: SW-620
A549 = tested on: A549
HT-29 = tested on: HT-29
OVCAR-4 = tested on: OVCAR-4
SF-539 = tested on: SF-539
XF498 = tested on: XF498
HCT-15 = tested on: HCT-15
K562 = tested on: K562
OVCAR-8 = tested on: OVCAR-8
SR = tested on: SR
KM12 = tested on: KM12
TK-10 = tested on: TK-10
UO-31 = tested on: UO-31
LXFL 529 = tested on: LXFL 529
KM-20L2 = tested on: KM-20L2
UACC-257 = tested on: UACC-257
HOP-18 = tested on: HOP-18
NCI-H460 = tested on: NCI-H460
EKVX = tested on: EKVX
786-0 = tested on: 786-0
SK-MEL-28 = tested on: SK-MEL-28
NCI-H23 = tested on: NCI-H23
RPMI-8226 = tested on: RPMI-8226
ACHN = tested on: ACHN
HCT-116 = tested on: HCT-116
UACC-62 = tested on: UACC-62
CAKI-1 = tested on: CAKI-1
HL-60 = tested on: HL-60
U-251 = tested on: U-251
RXF 631 = tested on: RXF 631
HOP-92 = tested on: HOP-92
DMS-114 = tested on: DMS-114
IGROV-1 = tested on: IGROV-1
M19-MEL = tested on: M19-MEL
HOP-62 = tested on: HOP-62
SK-OV-3 = tested on: SK-OV-3
MOLT-4 = tested on: MOLT-4
SF-295 = tested on: SF-295
LOX IMVI = tested on: LOX IMVI
SN12C = tested on: SN12C
SK-MEL-5 = tested on: SK-MEL-5
A498 = tested on: A498
NCI-H226 = tested on: NCI-H226
SNB-75 = tested on: SNB-75

SMILES: Cc1nc(N)sc1C(=O)/C=C/c1ccc(/C=C/C(=O)c2sc(NC(=O)CCCCCCCCC(=O)Nc3nc(C)c(C(=O)/C=C/c4ccc(/C=C/C(=O)c5sc(N)nc5C)cc4)s3)nc2C)cc1
- GI50 (SNB-78): 58.5 µM (inactive)
- GI50 (CCRF-CEM): 80.9 µM (inactive)
- GI50 (SNB-19): > 100 µM (inactive)
- GI50 (SK-MEL-2): > 100 µM (inactive)
- GI50 (RXF 393): > 100 µM (inactive)
- GI50 (M14): > 100 µM (inactive)
- GI50 (DLD-1): > 100 µM (inactive)
- GI50 (OVCAR-3): 62.8 µM (inactive)
- GI50 (OVCAR-5): > 100 µM (inactive)
- GI50 (HCC 2998): > 100 µM (inactive)
- GI50 (Malme-3M): > 100 µM (inactive)
- GI50 (COLO 205): > 100 µM (inactive)
- GI50 (NCI-H522): 64.6 µM (inactive)
- GI50 (SF-268): > 100 µM (inactive)
- GI50 (DMS-273): > 100 µM (inactive)
- GI50 (SW-620): > 100 µM (inactive)
- GI50 (A549): > 100 µM (inactive)
- GI50 (HT-29): > 100 µM (inactive)
- GI50 (OVCAR-4): > 100 µM (inactive)
- GI50 (SF-539): > 100 µM (inactive)
- GI50 (XF498): > 100 µM (inactive)
- GI50 (HCT-15): > 100 µM
- GI50 (K562): > 100 µM (inactive)
- GI50 (OVCAR-8): > 100 µM (inactive)
- GI50 (SR): > 100 µM (inactive)
- GI50 (KM12): > 100 µM (inactive)
- GI50 (TK-10): > 100 µM (inactive)
- GI50 (UO-31): > 100 µM (inactive)
- GI50 (LXFL 529): > 100 µM (inactive)
- GI50 (KM-20L2): > 100 µM (inactive)
- GI50 (UACC-257): > 100 µM (inactive)
- GI50 (HOP-18): > 100 µM (inactive)
- GI50 (NCI-H460): > 100 µM (inactive)
- GI50 (EKVX): > 100 µM (inactive)
- GI50 (786-0): > 100 µM (inactive)
- GI50 (SK-MEL-28): 52.8 µM (inactive)
- GI50 (NCI-H23): > 100 µM (inactive)
- GI50 (RPMI-8226): > 10 µM (inactive)
- GI50 (ACHN): > 100 µM (inactive)
- GI50 (HCT-116): 92 µM (inactive)
- GI50 (UACC-62): 27.7 µM (inactive)
- GI50 (CAKI-1): 60.4 µM (inactive)
- GI50 (HL-60): > 100 µM (inactive)
- GI50 (U-251): > 100 µM (inactive)
- GI50 (RXF 631): > 100 µM (inactive)
- GI50 (HOP-92): < 0.01 µM (active)
- GI50 (DMS-114): > 100 µM (inactive)
- GI50 (IGROV-1): > 100 µM (inactive)
- GI50 (M19-MEL): > 100 µM (inactive)
- GI50 (HOP-62): > 100 µM (inactive)
- GI50 (SK-OV-3): > 100 µM (inactive)
- GI50 (MOLT-4): > 100 µM (inactive)
- GI50 (SF-295): > 100 µM (inactive)
- GI50 (LOX IMVI): > 100 µM (inactive)
- GI50 (SN12C): > 100 µM (inactive)

SMILES: CCOC(=O)C1=C(NC(C)(C)C)OC/C1=N\NC(=O)Cc1ccccc1
- GI50 (SNB-78): > 100 µM (inactive)
- GI50 (CCRF-CEM): > 100 µM (inactive)
- GI50 (SNB-19): > 100 µM (inactive)
- GI50 (SK-MEL-2): > 100 µM (inactive)
- GI50 (RXF 393): > 100 µM (inactive)
- GI50 (M14): > 100 µM (inactive)
- GI50 (DLD-1): > 100 µM (inactive)
- GI50 (OVCAR-3): > 100 µM (inactive)
- GI50 (OVCAR-5): > 100 µM (inactive)
- GI50 (HCC 2998): > 100 µM (inactive)
- GI50 (Malme-3M): > 100 µM (inactive)
- GI50 (COLO 205): > 100 µM (inactive)
- GI50 (NCI-H522): > 100 µM (inactive)
- GI50 (SF-268): > 100 µM (inactive)
- GI50 (DMS-273): > 100 µM (inactive)
- GI50 (SW-620): > 100 µM (inactive)
- GI50 (A549): > 100 µM (inactive)
- GI50 (HT-29): > 100 µM (inactive)
- GI50 (SK-MEL-5): > 100 µM (inactive)
- GI50 (OVCAR-4): > 100 µM (inactive)
- GI50 (SF-539): > 100 µM (inactive)
- GI50 (XF498): > 100 µM (inactive)
- GI50 (HCT-15): > 100 µM
- GI50 (K562): > 100 µM (inactive)
- GI50 (OVCAR-8): > 100 µM (inactive)
- GI50 (SR): > 100 µM (inactive)
- GI50 (KM12): > 100 µM (inactive)
- GI50 (TK-10): > 100 µM (inactive)
- GI50 (UO-31): > 100 µM (inactive)
- GI50 (LXFL 529): > 100 µM (inactive)
- GI50 (KM-20L2): > 100 µM (inactive)
- GI50 (UACC-257): > 100 µM (inactive)
- GI50 (HOP-18): > 100 µM (inactive)
- GI50 (NCI-H460): > 100 µM (inactive)
- GI50 (EKVX): > 100 µM (inactive)
- GI50 (786-0): > 100 µM (inactive)
- GI50 (A498): > 100 µM (inactive)
- GI50 (SK-MEL-28): > 100 µM (inactive)
- GI50 (NCI-H23): > 100 µM (inactive)
- GI50 (NCI-H226): > 100 µM (inactive)
- GI50 (ACHN): > 100 µM (inactive)
- GI50 (HCT-116): > 100 µM (inactive)
- GI50 (UACC-62): > 100 µM (inactive)
- GI50 (CAKI-1): > 100 µM (inactive)
- GI50 (HL-60): > 100 µM (inactive)
- GI50 (U-251): > 100 µM (inactive)
- GI50 (RXF 631): > 100 µM (inactive)
- GI50 (HOP-92): > 100 µM (inactive)
- GI50 (SNB-75): 27.9 µM (inactive)
- GI50 (DMS-114): > 100 µM (inactive)
- GI50 (IGROV-1): > 100 µM (inactive)
- GI50 (M19-MEL): > 100 µM (inactive)
- GI50 (HOP-62): > 100 µM (inactive)
- GI50 (SK-OV-3): > 100 µM (inactive)
- GI50 (MOLT-4): > 100 µM (inactive)
- GI50 (SF-295): > 100 µM (inactive)
- GI50 (LOX IMVI): > 100 µM (inactive)
- GI50 (SN12C): > 100 µM (inactive)
